Source: US20230150924A1, “NOVEL COMPOUND HAVING CANCER METASTASIS INHIBITORY ACTIVITY, PREPARATION METHOD THEREFOR, AND PHARMACEUTICAL COMPOSITION FOR INHIBITING CANCER METASTASIS AND INVASION OR TREATING COLORECTAL CANCER, COMPRISING COMPOUND” (CELLGENTEK CO., LTD., priority 2019, published 2023)
Like-named read-outs stand apart in the source and are kept apart here.

Key:
[1] = system: invasion of colorectal cancer cells; assay: In vivo relative invation (invasion; EV and KITENIN controls, no method described); conditions: relative to EV (=1); KIT = KITENIN
KAI1 promoter = KAI1 promoter luciferase reporter assay in transfected Caco2 cells; type: cell-based, human; conditions: Homo sapiens, Caco-2, 16 h, read-out: Relative KAI promoter activity
Protocol: Experiments were conducted to evaluate the metastasis-related promoter activity-increasing effects of the compounds according to the present invention. Specifically, the KAI1 promoter reporter vector was used. In this case, the pRL-TK vector, a vector expressing renilla luciferase, was used as an internal control indicating the transfection efficiency in each transfected well.
First, 24 hours before transfection, 2×10^6 human colon cancer cell line, Caco2) cells were cultured in 10 ml of DMEM containing 10% FBS and 1% penicillin/streptomycin on a 100-mm-diameter plate, and then transformed with 5 μg of a pRL-TK vector mixture containing a transfection reagent and the KAI1 promoter, and then cultured in a 5% CO2 incubator at 37° C. for 48 hours. Thereafter, the adherent cells were detached using trypsin and counted using a hemacytometer, and then 5×10^3 transfected Caco2 cells in 100 μl of DMEM containing 10% FBS and 1% penicillin/streptomycin were seeded into each well of a 96-well plate and cultured in a 5% CO2 incubator at 37° C. for 24 hours. Next, 1 μM of each of the 305 compounds prepared in Examples 1 to 305 was added to each well, and after 16 hours, 100 μl of a lysis buffer for analysis containing a luciferase substrate was added, and the cells were lysed with stirring for 20 minutes. After completion of lysis, the cells were measured for luciferase activity using a luciferase reporter assay system (Promega, USA). […] In addition, data were analyzed at a significance level of p<0.05 by one-way ANOVA (Tukey's HSD), and SPSS 17.0 (Chicago, USA) statistical program was used. In Table 14 to 20, PHA is the PHA-665752, and KIT is KITENIN.

[2] = 1 μM compound, 16 hours, transfected Caco2 cells, luciferase activity relative to DMSO control (=1)

Compound: CN(C)c1ccc(C(=O)CNC(=O)c2ccc(F)c(F)c2)cc1 [Example 116, N-(2-(4-(dimethylamino)phenyl)-2-oxoethyl)-3,4ifluorobenzamide]
- In vivo relative invation [1]: 1.164
- fold induction at 1 µM (KAI1 promoter; [2]): 2.15

Compound: O=C(CNC(=O)c1ccc(OC(F)(F)F)cc1)c1ccc(Cl)cc1 [Example 81, N-(2-(4-chlorophenyl)-2-oxoethyl)-4-(trifluoromethoxy)benzamide]
- In vivo relative invation [1]: 1.142
- fold induction at 1 µM (KAI1 promoter; [2]): 0.8

Compound: O=C(CNC(=O)c1ccc(F)cc1)c1ccc(Cl)cc1 [Example 45, N-(2-(4-chlorophenyl)-2-oxoethyl)-4-fluorobenzamide]
- In vivo relative invation [1]: 1.476
- fold induction at 1 µM (KAI1 promoter; [2]): 0.84

Compound: O=C(CNC(=O)c1ccc(Cl)cc1)c1cccnc1 [Example 130, 4-chloro-N-(2-oxo-2-(pyridin-3-yl)ethyl)benzamide]
- In vivo relative invation [1]: 0.9875
- fold induction at 1 µM (KAI1 promoter; [2]): 1.32

Compound: COc1cccc(C(=O)CNC(=O)c2cccc(CN3CCN(CCO)CC3)c2)c1 [Example 292, 3-((4-(2-hydroxyethyl)piperazin-1-yl)methyl)-N-(2-(3-methoxyphenyl)-2-oxoethyl)benzamide]
- In vivo relative invation [1]: 1.238
- fold induction at 1 µM (KAI1 promoter; [2]): 1.45

Compound: C=CC(=O)NCC(=O)c1ccccc1 [Example 10, N-(2-oxo-2-phenylethyl) acrylamide]
- In vivo relative invation [1]: 0.9099
- fold induction at 1 µM (KAI1 promoter; [2]): 1.08

Compound: O=C(CNC(=O)C1CCC1)c1ccc(Cl)cc1 [Example 57, N-(2-(4-chlorophenyl)-2-oxoethyl)cyclobutanecarboxamide]
- In vivo relative invation [1]: 1.217
- fold induction at 1 µM (KAI1 promoter; [2]): 0.94

Compound: CCCCC(=O)NCC(=O)c1ccc(Cl)cc1 [Example 61, N-(2-(4-chlorophenyl)-2-oxoethyl)pentanamide]
- In vivo relative invation [1]: 1
- fold induction at 1 µM (KAI1 promoter; [2]): 0.72

Compound: O=C(CNC(=O)C1CC1)c1ccc(Cl)cc1 [Example 56, N-(2-(4-chlorophenyl)-2-oxoethyl)cyclopropanecarboxamide]
- In vivo relative invation [1]: 1.249
- fold induction at 1 µM (KAI1 promoter; [2]): 0.92

Compound: C=CCN(CC=C)Cc1cccc(C(=O)NCC(=O)c2cccc(OC)c2)c1 [Example 285, 3-((diallylamino)methyl)-N-(2-(3-methoxyphenyl)-2-oxoethyl)benzamide]
- In vivo relative invation [1]: 1.247
- fold induction at 1 µM (KAI1 promoter; [2]): 1.47

Compound: O=C(CNC(=O)c1cccc(CN2CCc3ccccc3C2)c1)c1ccccc1 [Example 232, 3-((3,4-dihydroisoquinolin-2 (1H)-yl)methyl)-N-(2-oxo-2-phenylethyl)benzamide]
- In vivo relative invation [1]: 1.125
- fold induction at 1 µM (KAI1 promoter; [2]): 1.23

Compound: CCCCC(=O)NCC(=O)c1ccccc1 [Example 20, N-(2-oxo-2-phenylethyl)pentanamide]
- In vivo relative invation [1]: 1.217
- fold induction at 1 µM (KAI1 promoter; [2]): 0.99

Compound: CCC(=O)NCC(=O)c1cccnc1 [Example 136, N-(2-oxo-2-(pyridin-3-yl)ethyl) propionamide]
- In vivo relative invation [1]: 1.297
- fold induction at 1 µM (KAI1 promoter; [2]): 1.17

Compound: C/C=C/C(=O)N1CCC(Oc2ccccc2C(=O)NCC(=O)c2ccccc2)CC1 [Example 158, (E)-2-((1-(but-2-enoyl)piperidin-4-yl)oxy)-N-(2-oxo-2-phenylethyl)benzamide]
- In vivo relative invation [1]: 1.171
- fold induction at 1 µM (KAI1 promoter; [2]): 1

Compound: O=C(CNC(=O)c1cccc(OC(F)(F)F)c1)c1ccccc1 [Example 39, N-(2-oxo-2-phenylethyl)-3-(trifluoromethoxy)benzamide]
- In vivo relative invation [1]: 0.5984
- fold induction at 1 µM (KAI1 promoter; [2]): 1.21

Compound: O=C(CNC(=O)c1ccccc1OC1CCN(C(=O)c2ccccc2Cl)CC1)c1ccccc1 [Example 156, 2-((1-(2-chlorobenzoyl)piperidin-4-yl)oxy)-N-(2-oxo-2-phenylethyl)benzamide]
- In vivo relative invation [1]: 1.158
- fold induction at 1 µM (KAI1 promoter; [2]): 0.99

Compound: CC(C)N(C)Cc1cccc(C(=O)NCC(=O)c2ccccc2)c1 [Example 233, 3-((isopropyl(methyl)amino)methyl)-N-(2-oxo-2-phenylethyl)benzamide]
- In vivo relative invation [1]: 1.026
- fold induction at 1 µM (KAI1 promoter; [2]): 1.15

Compound: CC(C)Oc1cccc(NC(=O)COc2ccccc2C(=O)NCC(=O)c2ccccc2)c1 [Example 220, 2-(2-((3-isopropoxyphenyl)amino)-2-oxoethoxy)-N-(2-oxo-2-phenylethyl)benzamide]
- In vivo relative invation [1]: 0.9324
- fold induction at 1 µM (KAI1 promoter; [2]): 1.15

Compound: O=C(CNC(=O)c1ccccc1F)c1cccnc1 [Example 132, 2-fluoro-N-(2-oxo-2-(pyridin-3-yl)ethyl)benzamide]
- In vivo relative invation [1]: 1.226
- fold induction at 1 µM (KAI1 promoter; [2]): 1.18

Compound: CC(C)CCNC(=O)COc1ccccc1C(=O)NCC(=O)c1ccccc1 [Example 229, 2-(2-(isopentylamino)-2-oxoethoxy)-N-(2-oxo-2-phenylethyl)benzamide]
- In vivo relative invation [1]: 1.245
- fold induction at 1 µM (KAI1 promoter; [2]): 1.06

Compound: O=C(CCc1ccccc1)NCC(=O)c1ccccc1 [Example 9, N-(2-oxo-2-phenylethyl)-3-phenylpropanamide]
- In vivo relative invation [1]: 0.8419
- fold induction at 1 µM (KAI1 promoter; [2]): 1.14

Compound: CCC(=O)NCC(=O)c1cccc(OC)c1 [Example 124, N-(2-(3-methoxyphenyl)-2-oxoethyl) propionamide]
- In vivo relative invation [1]: 1.266
- fold induction at 1 µM (KAI1 promoter; [2]): 1.04

Compound: COc1ccc(C(=O)NCC(=O)c2ccc(N3CCOCC3)cc2)cc1 [Example 140, 4-methoxy-N-(2-(4-morpholinophenyl)-2-oxoethyl)benzamide]
- In vivo relative invation [1]: 1.553
- fold induction at 1 µM (KAI1 promoter; [2]): 1.15

Compound: COc1cccc(C(=O)CNC(=O)c2cccc(CC3CCN(c4ccccc4F)CC3)c2)c1 [Example 281, 3-((1-(2-fluorophenyl)piperidin-4-yl)methyl)-N-(2-(3-methoxyphenyl)-2-oxoethyl)benzamide]
- In vivo relative invation [1]: 1.236
- fold induction at 1 µM (KAI1 promoter; [2]): 1.52

Compound: COc1ccc(NC(=O)COc2ccccc2C(=O)NCC(=O)c2ccccc2)cc1OC [Example 216, 2-(2-((3,4-dimethoxyphenyl)amino)-2-oxoethoxy)-N-(2-oxo-2-phenylethyl)benzamide]
- In vivo relative invation [1]: 1.255
- fold induction at 1 µM (KAI1 promoter; [2]): 1.2

Compound: CN(C)c1ccc(C(=O)CNC(=O)c2ccc(Cl)cc2)cc1 [Example 88, 4-chloro-N-(2-(4-(dimethylamino)phenyl)-2-oxoethyl)benzamide]
- In vivo relative invation [1]: 0.9216
- fold induction at 1 µM (KAI1 promoter; [2]): 1.35

Compound: O=C(CNC(=O)c1ccco1)c1ccccc1 [Example 5, N-(2-oxo-2-phenylethyl)furan-2-carboxamide]
- In vivo relative invation [1]: 0.812
- fold induction at 1 µM (KAI1 promoter): 1.98

Compound: O=C(CNC(=O)c1ccccc1F)c1ccc(N2CCOCC2)cc1 [Example 137, 2-fluoro-N-(2-(4-morpholinophenyl)-2-oxoethyl)benzamide]
- In vivo relative invation [1]: 1.231
- fold induction at 1 µM (KAI1 promoter; [2]): 1.19

Compound: O=C(CNC(=O)c1ccccc1OC1CCN(C(=O)c2ccc(Cl)cc2)CC1)c1ccccc1 [Example 151, 2-((1-(4-chlorobenzoyl)piperidin-4-yl)oxy)-N-(2-oxo-2-phenylethyl)benzamide]
- In vivo relative invation [1]: 1.212
- fold induction at 1 µM (KAI1 promoter; [2]): 1.05

Compound: CN(CCO)Cc1cccc(C(=O)NCC(=O)c2ccccc2)c1 [Example 243, 3-(((2-hydroxyethyl) (methyl)amino)methyl)-N-(2-oxo-2-phenylethyl)benzamide]
- In vivo relative invation [1]: 1.105
- fold induction at 1 µM (KAI1 promoter; [2]): 1.48

Compound: O=C(CNC(=O)c1ccccc1OC1CCN(C(=O)c2cccc(OC(F)(F)F)c2)CC1)c1ccccc1 [Example 200, N-(2-oxo-2-phenylethyl)-2-((1-(3-(trifluoromethoxy)benzoyl)piperidin-4-yl)oxy)benzamide]
- In vivo relative invation [1]: 1.074
- fold induction at 1 µM (KAI1 promoter; [2]): 1.01

Compound: O=C(CNC(=O)c1cccc(Cl)c1Cl)c1ccccc1 [Example 37, 2,3-dichloro-N-(2-oxo-2-phenylethyl)benzamide]
- In vivo relative invation [1]: 0.9648
- fold induction at 1 µM (KAI1 promoter; [2]): 1.17

Compound: CCCNC(=O)COc1ccccc1C(=O)NCC(=O)c1ccccc1 [Example 228]
- In vivo relative invation [1]: 1.278
- fold induction at 1 µM (KAI1 promoter; [2]): 0.982

Compound: CN(C)c1ccc(C(=O)CNC(=O)c2ccc(F)cc2)cc1 [Example 91, N-(2-(4-(dimethylamino)phenyl)-2-oxoethyl)-4-fluorobenzamide]
- In vivo relative invation [1]: 1.058
- fold induction at 1 µM (KAI1 promoter; [2]): 2.44

Compound: O=C(COc1ccccc1C(=O)NCC(=O)c1ccccc1)Nc1ccc2c(c1)OCCO2 [Example 218, 2-(2-((2,3-dihydrobenzo[b] [1, 4]dioxin-6-yl)amino)-2-oxoethoxy)-N-(2-oxo-2-phenylethyl)benzamide]
- In vivo relative invation [1]: 1.169
- fold induction at 1 µM (KAI1 promoter; [2]): 1.33

Compound: O=C(CNC(=O)c1ccccc1CN1CCC(N2CCCCC2)CC1)c1ccccc1 [Example 301, 2-([1,4′-bipiperidin]-1′-ylmethyl)-N-(2-oxo-2-phenylethyl)benzamide]
- In vivo relative invation [1]: 1.146
- fold induction at 1 µM (KAI1 promoter; [2]): 1.61
